7 molecules from patent US11078207B2, “Substituted pyrrolo[2,3-d]pyrimidines as HER2 inhibitors” (TAIHO PHARMACEUTICAL CO., LTD., priority 2019, dated 2021) can be followed below.

Some results are limits rather than exact numbers.

The IC50 is the midpoint of a concentration-inhibition curve. For orientation: AUC(0-t) means exposure summed from dosing to a finite time, without extrapolation to infinity. Low values mean less exposure, high ones more exposure.

One data set addresses T1, HER2 (Homo sapiens, UniProt P04626).
T1 construct: purchased Carna Biosciences, Inc
As to the kind of experiment: Inhibitory effect (in vitro) on HER2 phosphorylation activity. In kind it is biochemical. Particulars: recombinant human HER2, ATP 5 μM, 25° C. 30 minutes. An excerpt: In order to determine conditions for a method of measuring the in vitro inhibitory activity of a compound against HER2 phosphorylation activity, based on the report regarding a HER2 kinase reaction using, as a substrate, a peptide having the same sequence (5-FAM-[…]-CONH2) as that of ProfilerPro Peptide 22 of PerkinElmer (Xie H et al., PLoS One. 2011; 6(7): e21487), ProfilerPro Peptide 22 was used as a substrate. A purified recombinant human HER2 protein used in the present test was purchased from Carna Biosciences, Inc. Upon the measurement of the inhibitory activity of the compound, first, the compound of the present invention was diluted stepwise with dimethyl sulfoxide (DMSO). […] To the reaction solution, EDTA was added to a final concentration of 30 mM, so as to terminate the reaction. Finally, using LabChip (registered trademark) EZ Reader II (PerkinElmer), an unphosphorylated substrate peptide (S) and a phosphorylated peptide (P) were separated and detected according to microchannel capillary electrophoresis.

The target in data set [1] is HER2 exon 20 insertion mutant (HER2ex20insYVMA, A775_G776insYVMA) (Homo sapiens, UniProt P04626, DUP772-775). The experiment in a line: Inhibitory action (in vitro) against HER2 exon 20 insertion mutant phosphorylation activity. Type of data set: biochemical. Particulars: 30 min pre-incubation, ATP 200 μM, 25° C. 220 minutes. An excerpt:
In order to determine conditions for a method of measuring the in vitro inhibitory activity of a compound against HER2 exon 20 insertion mutant phosphorylation activity, as in the case of HER2, ProfilerPro Peptide 22 was used as a substrate. A purified recombinant human HER2 exon 20 insertion mutant (A775_G776insYVMA) protein is shown in SEQ ID NO: 7, and was purchased from SignalChem. Upon the measurement of the inhibitory activity of the compound, first, the compound of the present invention was diluted stepwise with dimethyl sulfoxide (DMSO). Subsequently, the HER2 exon 20 insertion mutant protein and the compound of the present invention in DMSO solution (final concentration of DMSO: 5%) were added into a buffer for the kinase reaction (13.5 mM Tris (pH 7.5), 2 mM dithiothreitol, and 0.009% Tween 20), and the obtained mixture was then pre-incubated at 25° C. for 30 minutes. Thereafter, the substrate peptide (final concentration: 1 μM), manganese chloride (final concentration: 25 mM), magnesium chloride (final concentration: 20 mM), and ATP (final concentration: 200 μM) were added into the reaction mixture, and the thus obtained mixture was then incubated at 25° C. for 220 minutes, so that the kinase reaction was carried out. To the reaction solution, EDTA was added to a final concentration of 30 mM, so as to terminate the reaction. Finally, using LabChip (registered trademark) EZ Reader II (PerkinElmer), an unphosphorylated substrate peptide (S) and a phosphorylated peptide (P) were separated and detected according to microchannel capillary electrophoresis.

The next data set concerns the target Ba/F3-HER2insYVMA cells (Homo sapiens, UniProt P04626, DUP772-775, cells depend on it). The experiment in a line: Growth inhibitory activity against HER2 exon 20 insertion mutant expressing cell line. Particulars: 3 days, CellTiter-Glo 2.0, read-out: HER2ex20insYVMA cell growth inhibitory activity IC50 value. In kind it is cell-based, mouse. The procedure: Growth inhibitory activity against the HER2 exon 20 insertion mutant was measured using Ba/F3 cells that were a mouse B lymphocyte precursor cell line, into which a human HER2 exon 20 insertion mutant gene had been introduced. The Ba/F3 cells were maintained in an RPMI-1640 medium (Thermo Fisher Scientific) supplemented with 10% fetal bovine serum (FBS), 100 U/mL penicillin, 100 μg/mL streptomycin (Thermo Fisher Scientific) and 1 ng/mL mouse interleukin-3 (mIL-3) (CST).
Upon evaluation of cell growth inhibitory activity, the Ba/F3-HER2insYVMA cells were suspended in an RPMI-1640 medium supplemented with 10% FBS, 100 U/mL penicillin, and 100 μg/mL streptomycin. The cell suspension was seeded in each well of a 96-well flat-bottom microplate, and was then cultured in a 5% carbon dioxide gas-containing culture vessel at 37° C. for 1 day. The compound of the present invention was dissolved in DMSO, and was then diluted with DMSO or the medium used in the suspension of the cells. The obtained solution was then added to each well of the culture plate, so that the final concentration of DMSO became 0.2%. The obtained mixture was further cultured in the 5% carbon dioxide gas-containing culture vessel at 37° C. for 3 days. After completion of the culture for 3 days in the presence of the compound, the cells were counted using CellTiter-Glo 2.0 (manufactured by Promega), and the growth inhibition percentage was then calculated according to the following equation. […] Growth inhibitory percentage (%)=(C−T)/(C)×100 T: Emission intensity from the well to which the test compound was added C: Emission intensity from the well to which the test compound was not added
Background: Cellular ATP, detected with luciferase, serves as a proxy for viable cell number.

For another data set, the system named is SK-BR-3 cells. The experiment in a line: Growth inhibitory activity against HER2 expressing cell line SK-BR-3. Type of data set: cell-based. To be noted: Homo sapiens, SK-BR-3, 72 h; 3 days, CellTiter-Glo 2.0. Here is the method:
SK-BR-3 cells as a HER2 overexpressing human breast cancer cell line were suspended in a McCoy's 5a medium (manufactured by Life Technologies) supplemented with 10% fetal bovine serum. The cell suspension was seeded in each well of a 384-well flat-bottom microplate, and was then cultured in a 5% carbon dioxide gas-containing culture vessel at 37° C. for 1 day. Thereafter, the compound of the present invention was dissolved in DMSO, and the compound was diluted to 500 times the final concentration in DMSO. The compound in the DMSO solution was diluted with DMSO solution or the medium used in the suspension of the cells, and the obtained solution was then added to each well of the culture plate so that the final concentration of DMSO was 0.2%. The obtained mixture was further cultured in the 5% carbon dioxide gas-containing culture vessel at 37° C. for 3 days. After completion of the culture for 3 days in the presence of the compound, the cells were counted using CellTiter-Glo 2.0 (manufactured by Promega), and the growth inhibition percentage was then calculated according to the following equation. […] Growth inhibitory percentage (%)=(C−T)/(C)×100 T: Emission intensity from the well to which the test compound was added C: Emission intensity from the well to which the test compound was not added

The nature of data set [2]: Evaluation of brain penetration properties. Type of data set: in vivo, BALB/cA mice. Particulars: 0.5 hours after oral 50 mg/kg/day.
Data set [3] in a line: Evaluation of oral absorbability. Type of data set: in vivo, BALB/cA mice. To be noted: oral 50 mg/kg/day; for AUC(0-t): mouse, plasma, BALB/cA mice. Here is the method:
The compound of the present invention was suspended or dissolved in 0.5% HPMC aqueous solution and 0.1 N hydrochloric acid, and the obtained suspension or solution was orally administered to BALB/cA mice (CLEA Japan, Inc.) at a dose of 50 mg/kg/day. At 0.5, 1, 2, 4 and 6 hours after completion of the oral administration, blood was collected from the facial vein over time, so as to obtain plasma. The concentration of the compound in the obtained plasma was measured by LC-MS/MS, and the oral absorbability of the present compound was evaluated.

A further data set has as its system NCI-N87 cells. The experiment in a line: Growth inhibitory activity against HER2 expressing cell line NCI-N87. Type of data set: cell-based. Particulars: Homo sapiens, NCI-N87, 72 h; 3 days, CellTiter-Glo 2.0. Here is the method: NCI-N87 cells as a HER2 overexpressing human stomach cancer cell line (American Type Culture Collection, Cat No. ATCC (registered trademark) CRL-5822) were suspended in an RPMI640 medium (Wako Pure Chemical Industries, Ltd.) supplemented with 10% fetal bovine serum. Subsequently, the cell suspension was seeded in each well of a 96-well flat-bottom microplate, and was then cultured in a 5% carbon dioxide gas-containing culture vessel at 37° C. for 1 day. Thereafter, the compound of the present invention was dissolved in DMSO, and the compound was diluted to 1000 times the final concentration in DMSO. The compound in the DMSO solution was diluted with the medium used in the suspension of the cells, and the obtained solution was then added to each well of the culture plate, so that the final concentration of DMSO became 0.1%. Regarding a control well, DMSO was diluted with the medium used in the suspension of the cells, and the obtained solution was then added to each well of the culture plate, so that the final concentration of DMSO became 0.1%. After addition of a drug solution, the obtained mixture was further cultured in the 5% carbon dioxide gas-containing culture vessel at 37° C. for 3 days. After completion of the culture for 3 days in the presence of the compound, the cells were counted using CellTiter-Glo 2.0 (manufactured by Promega) in accordance with the protocols recommended by Promega. The growth inhibition percentage was calculated according to the following equation. […] Growth inhibitory percentage (%)=(C−T)/(C)×100 T: Emission intensity from the well to which the test compound was added C: Emission intensity from the well to which the test compound was not added

T1 sequence (P04626 23-1255): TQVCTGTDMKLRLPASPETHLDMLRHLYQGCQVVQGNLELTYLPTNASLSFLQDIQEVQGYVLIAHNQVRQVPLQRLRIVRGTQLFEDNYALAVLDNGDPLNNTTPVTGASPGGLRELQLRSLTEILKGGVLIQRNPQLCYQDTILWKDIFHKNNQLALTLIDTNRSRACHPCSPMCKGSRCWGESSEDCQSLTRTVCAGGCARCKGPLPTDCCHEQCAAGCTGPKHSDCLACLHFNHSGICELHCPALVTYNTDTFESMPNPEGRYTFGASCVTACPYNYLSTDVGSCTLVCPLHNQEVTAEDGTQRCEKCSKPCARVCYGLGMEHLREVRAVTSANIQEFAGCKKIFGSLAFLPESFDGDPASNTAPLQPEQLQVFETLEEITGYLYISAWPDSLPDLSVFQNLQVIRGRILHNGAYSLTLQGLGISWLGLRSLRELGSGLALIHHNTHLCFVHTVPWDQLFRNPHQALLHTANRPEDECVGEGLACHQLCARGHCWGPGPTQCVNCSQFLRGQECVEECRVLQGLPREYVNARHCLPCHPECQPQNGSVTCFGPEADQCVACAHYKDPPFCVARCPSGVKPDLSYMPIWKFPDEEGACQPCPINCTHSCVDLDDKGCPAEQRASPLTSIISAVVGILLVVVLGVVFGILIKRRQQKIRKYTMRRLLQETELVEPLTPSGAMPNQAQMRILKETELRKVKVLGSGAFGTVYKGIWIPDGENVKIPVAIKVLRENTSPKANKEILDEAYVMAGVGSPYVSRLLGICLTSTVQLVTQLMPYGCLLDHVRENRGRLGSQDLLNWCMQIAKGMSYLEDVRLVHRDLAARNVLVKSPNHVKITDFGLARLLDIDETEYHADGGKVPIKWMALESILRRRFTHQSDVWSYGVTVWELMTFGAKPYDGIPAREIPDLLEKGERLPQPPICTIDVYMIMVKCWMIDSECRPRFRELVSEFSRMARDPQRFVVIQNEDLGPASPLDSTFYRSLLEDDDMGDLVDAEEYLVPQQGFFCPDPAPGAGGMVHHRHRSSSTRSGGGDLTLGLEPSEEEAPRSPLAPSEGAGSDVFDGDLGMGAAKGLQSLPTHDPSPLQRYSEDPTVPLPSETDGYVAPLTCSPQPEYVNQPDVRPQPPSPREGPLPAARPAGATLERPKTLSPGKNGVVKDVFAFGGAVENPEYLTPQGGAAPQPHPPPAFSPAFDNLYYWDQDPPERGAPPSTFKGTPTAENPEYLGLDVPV
Chain of Ba/F3-HER2insYVMA cells (P04626 with tags, fused parts or gaps DUP772-775): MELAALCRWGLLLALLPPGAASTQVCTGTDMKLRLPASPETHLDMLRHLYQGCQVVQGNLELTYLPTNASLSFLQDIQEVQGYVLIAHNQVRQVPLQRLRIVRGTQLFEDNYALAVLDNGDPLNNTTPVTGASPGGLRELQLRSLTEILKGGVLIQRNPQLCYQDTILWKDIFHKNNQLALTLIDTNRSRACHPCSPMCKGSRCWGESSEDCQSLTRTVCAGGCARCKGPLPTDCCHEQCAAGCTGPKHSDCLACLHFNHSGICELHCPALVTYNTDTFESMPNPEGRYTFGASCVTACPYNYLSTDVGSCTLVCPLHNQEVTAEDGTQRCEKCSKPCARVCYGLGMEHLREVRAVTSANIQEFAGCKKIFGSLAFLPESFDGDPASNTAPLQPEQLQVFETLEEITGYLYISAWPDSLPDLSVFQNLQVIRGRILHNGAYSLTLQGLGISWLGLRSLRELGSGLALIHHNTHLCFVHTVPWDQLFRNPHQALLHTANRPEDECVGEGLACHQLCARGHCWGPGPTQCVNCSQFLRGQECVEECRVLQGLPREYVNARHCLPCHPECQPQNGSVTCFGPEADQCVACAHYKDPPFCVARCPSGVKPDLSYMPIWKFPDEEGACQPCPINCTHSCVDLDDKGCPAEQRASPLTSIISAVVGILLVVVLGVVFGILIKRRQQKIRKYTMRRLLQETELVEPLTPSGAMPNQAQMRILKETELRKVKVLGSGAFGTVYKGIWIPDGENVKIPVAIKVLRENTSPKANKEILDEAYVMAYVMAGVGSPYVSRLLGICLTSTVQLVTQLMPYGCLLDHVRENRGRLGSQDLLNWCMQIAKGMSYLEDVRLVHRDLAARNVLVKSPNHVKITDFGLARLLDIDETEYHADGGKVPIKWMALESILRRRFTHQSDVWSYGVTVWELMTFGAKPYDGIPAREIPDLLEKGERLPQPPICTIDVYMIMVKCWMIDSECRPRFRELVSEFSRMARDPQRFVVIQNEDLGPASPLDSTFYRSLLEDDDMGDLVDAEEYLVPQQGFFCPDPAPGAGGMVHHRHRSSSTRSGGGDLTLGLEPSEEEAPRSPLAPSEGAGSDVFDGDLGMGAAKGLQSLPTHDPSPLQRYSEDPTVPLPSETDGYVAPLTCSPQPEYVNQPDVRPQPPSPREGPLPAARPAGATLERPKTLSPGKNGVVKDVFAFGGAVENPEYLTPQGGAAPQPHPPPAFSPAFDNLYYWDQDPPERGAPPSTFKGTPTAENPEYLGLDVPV
Chain of HER2 exon 20 insertion mutant (HER2ex20insYVMA, A775_G776insYVMA) (P04626 with tags, fused parts or gaps DUP772-775): as above

As for `CC#Cc1c(C(=O)Nc2ccc(COC)cc2)c2c(N)ncnc2n1C1(C)CC1` [Comp. Ex. 1, 4-Amino-N-(4-(methoxymethyl)phenyl)-7-(1-methylcyclopropyl)-6-(prop-1-yn-1-yl)-7H-pyrrolo[2,3-d]pyrimidine-5-carboxamide, reference compound], the IC50 (on HER2; in data set [1]; with SK-BR-3 cells) was greater than 10000 nM each time. In addition, the GI50 on Ba/F3-HER2insYVMA cells was greater than 10000 nM.

In the case of `C=CC(=O)N1C[C@H](n2nc(C(=O)Nc3ccc(CC(=O)N(C)C)c(C)c3C)c3c(N)ncnc32)C[C@@H]1C` [Comp. Ex. 2, 1-((3R,5S)-1-acryloyl-5-methylpyrrolidin-3-yl)-4-amino-N-(4-(2-(dimethylamino)-2-oxoethyl)-2,3-dimethylphenyl)-1H-pyrazolo[3,4-d]pyrimidine-3-carboxamide, reference compound], the “brain concentration attenuated versus the compound of the present invention” value in data set [2] (mice) is “more than 80 times”. In data set [2] (mouse, brain, BALB/cA mice, read-out: Kp value (Compound concentration in brain/plasma)), the Kp at 0.5 h amounted to 0.005. Also, the concentration at 0.5 h in data set [2] (mouse, plasma, BALB/cA mice, read-out: Compound concentration in plasma) amounted to 1600 nM. The IC50 was determined as 19 nM on HER2, 4.4 nM in data set [1] and 25 nM in the data set on SK-BR-3 cells. Also, the GI50 on Ba/F3-HER2insYVMA cells turned out to be 1900 nM. In data set [3], this molecule registered an AUC(0-t) of 1.5 µM·h. In data set [3] (mice), the “oral absorbability attenuated versus the compound of the present invention” value is recorded as “more than 4 times”.

On to `C=CC(=O)N1C[C@H](n2c(C#CC)c(C(=O)NCC3CCCCC3)c3c(N)ncnc32)C[C@@H]1C` [Comp. Ex. 3, 7-((3R,5S)-1-acryloyl-5-methylpyrrolidin-3-yl)-4-amino-N-(cyclohexylmethyl)-6-(prop-1-yn-1-yl)-7H-pyrrolo[2,3-d]pyrimidine-5-carboxamide], for which the IC50 at HER2 amounted to 630 nM; in data set [1], 380 nM; in the data set on SK-BR-3 cells, 4300 nM. The GI50 at Ba/F3-HER2insYVMA cells amounted to 3400 nM.

In the case of `C=CC(=O)N1C[C@H](n2c(C#CC)c(C(=O)NCc3ccccc3C)c3c(N)ncnc32)C[C@@H]1C` [Comp. Ex. 4, 7-((3R,5S)-1-acryloyl-5-methylpyrrolidin-3-yl)-4-amino-N-(2-methylbenzyl)-6-(prop-1-yn-1-yl)-7H-pyrrolo[2,3-d]pyrimidine-5-carboxamide], the results for the IC50 (at HER2; in data set [1]; in the data set with SK-BR-3 cells) were 54 nM, 11 nM and 340 nM, respectively. Besides, at Ba/F3-HER2insYVMA cells, the GI50 was found to be 900 nM.

Consider `C=CC(=O)N1C[C@H](n2c(C#CC)c(C(=O)N(C)[C@H](C)c3ccccc3)c3c(N)ncnc32)C[C@@H]1C` [Comp. Ex. 5, 7-((3R,5S)-1-acryloyl-5-methylpyrrolidin-3-yl)-4-amino-N-methyl-N—((R)-1-phenylethyl)-6-(prop-1-yn-1-yl)-7H-pyrrolo[2,3-d]pyrimidine-5-carboxamide], for which the IC50 came out at 130 nM at HER2, 14 nM in data set [1] and 400 nM in the data set with SK-BR-3 cells. Further, the GI50 on Ba/F3-HER2insYVMA cells came out at 1300 nM.

Consider `CC#Cc1c(C(=O)N[C@H](C)c2ccccc2)c2c(N)ncnc2n1[C@@H]1C[C@H](C)N(C(=O)/C=C/C)C1` [Comp. Ex. 6, 4-Amino-7-((3R,5S)-1-((E)-but-2-enoyl)-5-methylpyrrolidin-3-yl)-N—((R)-1-phenylethyl)-6-(prop-1-yn-1-yl)-7H-pyrrolo[2,3-d]pyrimidine-5-carboxamide], for which the IC50 is 390 nM on HER2, greater than 10000 nM in data set [1] and 3000 nM in the data set on SK-BR-3 cells. Besides, the GI50 at Ba/F3-HER2insYVMA cells worked out at 4100 nM.

On to `C=CC(=O)N1C[C@H](n2c(C#CC)c(C(=O)N[C@H](C)c3ccc(F)cc3F)c3c(N)ncnc32)C[C@@H]1C` [Example 7, 7-((3R,5S)-1-acryloyl-5-methylpyrrolidin-3-yl)-4-amino-N—((R)-1-(2,4-difluorophenyl)ethyl)-6-(prop-1-yn-1-yl)-7H-pyrrolo[2,3-d]pyrimidine-5-carboxamide], for which the IC50 at HER2 was 4.9 nM; in data set [1], 0.39 nM; with SK-BR-3 cells, 12 nM; with NCI-N87 cells, 11.1 nM. Besides, at Ba/F3-HER2insYVMA cells, the GI50 came to 40 nM. Also, in data set [3], the AUC(0-t) was 15 µM·h.
